Columns and labels:
Assay type in all cases: cell-based, human
20743 mRNA = experiment: Breast cancer cell model panel, 20743 mRNA expression in MCF10A cells
Method: On a breast cancer cell model panel, 20743 mRNA expression in MCF10A cells was increased 4-fold by 8 hrs treatment of 10 ng/ml EGF and was increased 3-fold by 3 hrs treatment with 10 nM IGF1.
(§1) This example describes the TaqMan™ procedure. The Taqman™ procedure is a quantitative, reverse transcription PCR-based approach for detecting mRNA. The RT-PCR reaction exploits the 5′ nuclease activity of AmpliTaq Gold™ DNA Polymerase to cleave a TaqMan™ probe during PCR. Briefly, cDNA was generated from the samples of interest, e.g., heart, kidney, liver, skeletal muscle, and various vessels, and used as the starting material for PCR amplification. In addition to the 5′ and 3′ gene-specific primers, a gene-specific oligonucleotide probe (complementary to the region being amplified) was included in the reaction (i.e., the Taqman™ probe). […]
(§2) During the PCR reaction, cleavage of the probe separates the reporter dye and the quencher dye, resulting in increased fluorescence of the reporter. Accumulation of PCR products is detected directly by monitoring the increase in fluorescence of the reporter dye. When the probe is intact, the proximity of the reporter dye to the quencher dye results in suppression of the reporter fluorescence. […]

39228 mRNA = experiment: TaqMan analysis of the Cox inhibitor study, 39228 mRNA expression in HUVEC; conditions: 40-100 mM, 10 h, relative to a vehicle (DMSO) control
Source text: as §1, §2

15701 mRNA = experiment: TaqMan PI3-kinase panel, 15701 mRNA expression; conditions: 48 hours
Source text: In an expanded breast cancer tissue panel, 15701 mRNA was expressed at increased levels (2-131 fold) in 14/15 primary breast tumor samples when compared to 4/4 normal breast tissue samples. In a breast cancer cell model panel, 15701 mRNA was expressed at a 4-fold increased level in transformed, activated H-ras-expressing MCF10AT01 cells vs. normal MCF10A cells, and at a 5-fold increased level in transformed, activated H-ras-expressing MCF10AT3B cells when compared to normal MCF10A cells. 15701 mRNA was expressed in many breast tumor cell lines, including MCF-7, T47D, ZR-75 and MDA-MB-468. In the PI3-kinase panel, 15701 mRNA expression was decreased in MDA-MB-468, MCF-7 and LNCaP cells after 48 hours treatment with the PI3-kinase inhibitor LY294002. 15701 mRNA expression in MDA-MB-468 cells decreased 7-fold after 48 hours with LY294002 (115 uM). […]
This example describes the TaqMan™ procedure. The Taqman™ procedure is a quantitative, reverse transcription PCR-based approach for detecting mRNA. […]
as §2

2201 = experiment: Breast cancer cell model panel, 2201 in MCF10A cells; conditions: 8 hour treatment, 10 ng/ml
Method: In a breast cancer cell model panel, 2201 is increased 3-fold after an 8 hour treatment of MCF10A cells with 10 ng/ml EGF.
as §1, §2

With “IGF1: growth factor used to treat MCF10A cells” the “20743 mRNA expression increase” value (20743 mRNA; 3 hrs treatment, 10 nM) was 3 fold.
With `CC1=C(CC(=O)O)c2cc(F)ccc2/C1=C\c1ccc([S+](C)[O-])cc1` (stereo not shown) [Sulindac] the “39228 mRNA expression” value (39228 mRNA) was “increased”.
`O=c1cc(N2CCOCC2)oc2c(-c3ccccc3)cccc12` [LY294002] was tested, and the “15701 mRNA expression decrease” value (15701 mRNA; MCF-7 cells, 30 uM) was 16 fold and the “15701 mRNA expression decrease” value (15701 mRNA; MDA-MB-468 cells, 115 uM) was 7 fold.
`CS(=O)(=O)Nc1ccc([N+](=O)[O-])cc1OC1CCCCC1` [NS398] was tested, and the “39228 mRNA expression” value (39228 mRNA) was “increased”.
For “EGF: epidermal growth factor (NSDSECPLSHDGYCLHDGVCMYIEALDKYACNCVVGYIGERCQYRDLKWWELR; UniProt P01133 971-1023, looked up)”, the “20743 mRNA expression increase” value (20743 mRNA; 8 hrs treatment, 10 ng/ml) was 4 fold and the 2201 increase 2201 was 3 fold.

From patent US20040235071A1, “Methods and compositions for treating cancer using 15986, 2188, 20743, 9148, 9151, 9791, 44252, 14184, 42461, 8204, 7970, 25552, 21657, 26492, 2411, 15088, 1905, 28899, 63380, 33935, 10480, 12686, 25501, 17694, 15701, 53062, 49908, 21612, 38949, 6216, 46863, 9235, 2201, 6985, 9883, 12238, 18057, …” (Millennium Pharmaceuticals, Inc., priority 2002, published 2004)
